The record followed here is PubChem BioAssay AID1996.

SMILES strings stand for the structures. Converted amounts (≈) assume the structure as drawn.

For the data set the following is noted: buffer; pH 7.4; 200.0 µM.
What is called kinetic solubility is the concentration staying in solution when a stock, usually in DMSO, is diluted into the medium. Consider `CC1(C)OC(=O)N(CCC(=O)Nc2cccc(F)c2)C1(C)O` (configuration not stated), for which the kinetic solubility was over 46.5 µg/mL.

Take `COc1cccc(/C=C/c2ccc3cccc(O)c3n2)c1`: the solubility (kinetic) stood at 0.7 µg/mL (≈ 2.52 µM).

For the compound `CC(=O)c1ccccc1NS(=O)(=O)c1cccc2nsnc12`, the solubility (kinetic) worked out at 1.5 µg/mL (≈ 4.5 µM).

With `CCNc1nc(SC(C)C(=O)Nc2ccccc2)nc(N(C)C)n1` (configuration not stated), the kinetic solubility stood at 3.4 µg/mL (≈ 9.81 µM).

Turning to `Cc1ccc(OCc2ccc(Br)cc2)c([N+](=O)[O-])n1`, the kinetic solubility is 2.2 µg/mL (≈ 6.81 µM).

For the compound `O=C(c1ccc2ccccc2c1)N1CCN(Cc2ccccc2)CC1`, the solubility (kinetic) is over 49.6 µg/mL.

`O=C(NCc1ccco1)/C(=C/c1ccc(Cl)cc1)NC(=O)c1ccco1` returned a solubility (kinetic) of 4 µg/mL (≈ 10.8 µM).

For `COc1ccccc1C(=O)NNC(=O)C(=O)NC(C)C`, the kinetic solubility was over 41.9 µg/mL.

In turn, `O=[N+]([O-])c1ccc(Cl)cc1N1CCOCC1` yielded a solubility (kinetic) of over 36.4 µg/mL.

Take `O=C(Cc1c(Cl)cccc1Cl)Nc1ccncc1Cl`: the solubility (kinetic) came to 6.1 µg/mL (≈ 19.3 µM).

Compound `CC(OC(=O)c1ccncc1)C(=O)NC1CCCC1` (configuration not stated) had a kinetic solubility of over 39.3 µg/mL.

`COC(=O)c1ccc(/C=C/C(=O)OCC(=O)Nc2sccc2C(N)=O)cc1` registered a solubility (kinetic) of 3.9 µg/mL (≈ 10 µM).

In turn, `COc1cccc(CN(C)C(c2ccccc2)c2ccccc2)c1OC` came in with a solubility (kinetic) of 1.7 µg/mL (≈ 4.89 µM).

In turn, `COC(=O)c1cc(Br)c(N)cc1OC` showed a solubility (kinetic) of over 39 µg/mL.

`Cc1ccnc(NC(=O)c2ccc(Cl)cc2Cl)n1` came in with a kinetic solubility of 31.7 µg/mL (≈ 112 µM).

In turn, `COC(=O)CSc1ncnc2scc(-c3ccccc3)c12` came in with a solubility (kinetic) of 11.2 µg/mL (≈ 35.4 µM).

On to `COCCCn1c(=O)c2ccccc2n(Cc2ccc(C)cc2)c1=O`, for which the kinetic solubility was found to be 2.1 µg/mL (≈ 6.21 µM).

As for `Cc1[nH]c(=O)c(S(=O)(=O)c2ccccc2)c(C)c1Cl`, the kinetic solubility was found to be 44.2 µg/mL (≈ 148 µM).

Turning to `CNC(=S)NCCc1ccccc1`, the solubility (kinetic) was 25.6 µg/mL (≈ 132 µM).

`O=[N+]([O-])c1cc2c(cc1CN1CCN(c3ccccc3F)CC1)OCO2` displayed a kinetic solubility of 1.1 µg/mL (≈ 3.06 µM). This solubility kinetic lies about 23-fold lower than the previous one.

`CC(O)c1nc2ccccc2n1CCCCOc1ccccc1` (configuration not stated) returned a kinetic solubility of 43.9 µg/mL (≈ 141 µM).

For `O=C(Nc1ccccc1)c1ccccc1OCc1ccc(F)cc1`, the solubility (kinetic) was under 0.7 µg/mL.

Compound `N#CCc1ccc(NC(=O)Nc2cccc3ccccc23)cc1` registered a kinetic solubility of 0.6 µg/mL (≈ 1.99 µM).

Compound `CCOc1ccccc1N1C(=O)CC(Sc2nccc(C)n2)C1=O` (configuration not stated) registered a solubility (kinetic) of over 51.5 µg/mL.

For `O=C(OCC(=O)N1CCC(Cc2ccccc2)CC1)c1ccccc1O`, the kinetic solubility amounted to 2.2 µg/mL (≈ 6.22 µM).

The compound `COC(=O)C1=C2SCC(=O)N2C(N)=C(C#N)C1` showed a kinetic solubility of over 37.7 µg/mL.

`CCCOc1ccc(C(=O)OCCN(CC)CC)cc1N.Cl`: the kinetic solubility is over 49.6 µg/mL.

The compound `COc1ccc(OCCCN2CCc3ccccc3C2)cc1.Cl` displayed a solubility (kinetic) of 36.5 µg/mL.

`COc1ccc(-c2noc(-c3ccc(Br)o3)n2)cc1`: the kinetic solubility is under 0.3 µg/mL.

Compound `O=C1[C@H](O)[C@@H](O)C(=O)N1Cc1ccccc1` registered a kinetic solubility of over 33.2 µg/mL.

`Clc1ccc(NCc2cccnc2)c(Cl)c1`: the solubility (kinetic) is 29.1 µg/mL (≈ 115 µM).

The compound `Cc1nc(CN(C)Cc2nc(Cc3cccc(F)c3)no2)cs1` showed a solubility (kinetic) of over 49.9 µg/mL.

Regarding `Cc1c(C)n(CCCN(C)C)c2ncnc(NCc3ccccc3)c12`, the solubility (kinetic) was over 50.6 µg/mL.

In turn, `O=C(O)CCC(=O)N1CCN(c2ncccc2C(F)(F)F)CC1` gave a kinetic solubility of 44.5 µg/mL (≈ 134 µM).

As to `CCNC(=S)N1CCCCC1CO` (configuration not stated), the solubility (kinetic) came out at 27.2 µg/mL (≈ 134 µM).

Regarding `Cc1nc(NC(=O)C2CC2)sc1C(=O)Nc1cccc(Cl)c1`, the kinetic solubility was found to be 0.8 µg/mL (≈ 2.38 µM).

Take `O=[N+]([O-])c1ccc(Cc2ccccn2)c([N+](=O)[O-])c1`: the kinetic solubility is 33.6 µg/mL (≈ 130 µM).

`CC1(C)C(=O)N(c2ccccc2)C(=O)c2ccccc21`: the kinetic solubility amounted to 25.8 µg/mL (≈ 97.2 µM).

The compound `O=C(COC(=O)CCc1ccc(S(=O)(=O)N2CCOCC2)cc1)Nc1ccccc1OC(F)F` returned a kinetic solubility of 49.5 µg/mL (≈ 99.3 µM).

`CC(=O)c1ccc(Sc2ccccc2N)c([N+](=O)[O-])c1` had a kinetic solubility of 19.6 µg/mL (≈ 68 µM).

Take `COc1ccc(C)cc1NC(=O)CCCN1C(=O)CN(C)C1=O`: the kinetic solubility was over 47.9 µg/mL.

With `Cc1cccc2cc(C#N)c(N3CCC(O)CC3)nc12`, the kinetic solubility turned out to be 34.3 µg/mL (≈ 128 µM).

`O=C(O)CCCNC(=O)Cc1ccccc1` registered a solubility (kinetic) of over 33.2 µg/mL.

Consider `O=C(O)Cc1ccc(NC(=O)Nc2cccc3ccccc23)cc1`, for which the kinetic solubility was 45.1 µg/mL (≈ 141 µM).

`CCOC(=O)C1(CCc2ccccc2)CCN(CC(O)CO)CC1` (configuration not stated) yielded a solubility (kinetic) of 39.8 µg/mL (≈ 119 µM).

Regarding `CCN(C(=O)c1cn(C)c(=O)c2ccccc12)c1ccccc1F`, the solubility (kinetic) is over 48.7 µg/mL.

Regarding `Cc1ccc(NC(=O)NCc2ccccn2)cc1Cl`, the solubility (kinetic) was over 41.4 µg/mL.

`Cc1nc(NC(=S)NC(=O)c2ccco2)sc1C(=O)N(C)C` registered a solubility (kinetic) of over 50.8 µg/mL.

Turning to `Cc1ccc(CC2SC(N)=NC2=O)cc1` (configuration not stated), the solubility (kinetic) is over 33 µg/mL.

In the case of `C1=C(c2c[nH]c3ccccc23)CCN(Cc2ccccc2)C1`, the solubility (kinetic) amounted to 7.2 µg/mL (≈ 25 µM).

For the compound `O=S(=O)(Nc1cc(S(=O)(=O)N2CCOCC2)ccc1Cl)c1ccccc1`, the kinetic solubility was over 62.5 µg/mL.

For the compound `CCc1ccccc1NC(=O)c1cc(-c2cccs2)on1`, the solubility (kinetic) came out at 0.8 µg/mL (≈ 2.68 µM).
